Experimental data from publication PMC7377239, “Cardiovascular Effects of Polychlorinated Biphenyls and Their Major Metabolites” (Environmental Health Perspectives, 2020).
Where two headings read alike, the source gives them in different places.

Legend:
[1] = tested on: HUVECs; assay: High-content imaging cytotoxicity in HUVECs, 24 h; assay type: cell-based, human; settings: Homo sapiens, HUVEC, 24 h, HUVECs; for viability at 0.01 µM / activity at 0.01 µM / viability at 0.1 µM / activity at 0.1 µM / viability at 1 µM / activity at 1 µM / viability at 10 µM / activity at 10 µM / viability at 100 µM / activity at 100 µM: 0.00 µM = 100.00; for viability at 0.1 µM / activity at 0.1 µM: 0.10 µM; for minimal effective concentration: top concentration 100.00 µM
How it was run: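 Confluent HUVEC monolayers, passages 1–5, received test chemicals for 24 h. Cytotoxicity was scored from triple-stain high-content images, with PODs defined by a one-SD deviation from 0.5% DMSO vehicle controls.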

[2] = tested on: iCell endothelial cells (human iPSC-derived ECs); assay: High-content imaging cytotoxicity in iCell endothelial cells, 24 h; assay type: cell-based; settings: Homo sapiens, Endothelial cell, iPSC-EC, 24 hr; for viability at 0.1 µM / activity at 0.1 µM: 0.10 µM; for minimal effective concentration: top concentration 100.00 µM
How it was run: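 Readouts were vehicle-normalised and fitted to a four-parameter logistic model. POD was set at one SD beyond 0.5% DMSO control means, and 100 µM was assigned when no response was seen. Cells were monolayers of iCell endothelial cells imaged after 24 h compound exposure using nuclear, mitochondrial and calcein dyes.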

[3] = 24 hr, read-out: huvec.cyto.24hr
[4] = 24 hr, read-out: huvec.mito.24hr
[5] = 24 hr, read-out: huvec.mitoint.24hr
[6] = 24 hr, read-out: huvec.nma.24hr
[7] = 24 hrs, read-out: huvec.tc.24hrs
[8] = 0.00 µM control = 100.00, read-out: endo.cyto.24hr
[9] = 0.00 µM control = 100.00, read-out: endo.mito.24hr
[10] = 0.00 µM control = 100.00, read-out: endo.mitoint.24hr
[11] = 0.00 µM control = 100.00, read-out: endo.nma.24hr
[12] = 0.00 µM control = 100.00, read-out: endo.tc.24hrs

For `Oc1cccc(-c2ccc(Cl)cc2)c1` [3'-OH PCB3], the viability at 0.01 µM [1, 3] was 89.2%, the activity at 0.01 µM [1, 4] was 89.3% and the activity at 0.01 µM [1, 5] was 101%. It also gave an activity at 0.01 µM [1, 6] of 97.3%, a viability at 0.1 µM [1, 3] of 100% and an activity at 0.1 µM [1, 4] of 100%. It also gave an activity at 0.1 µM [1, 5] of 111%, an activity at 0.1 µM [1, 6] of 92.6% and a viability at 1 µM [1, 3] of 94.4%. The activity at 1 µM [1, 4] was 93.7%, the activity at 1 µM [1, 5] was 104% and the activity at 1 µM [1, 6] was 92%. The viability at 10 µM [1, 3] was 70.9%, the activity at 10 µM [1, 4] was 66.2% and the activity at 10 µM [1, 5] was 108%. It also gave an activity at 10 µM [1, 6] of 84.9%, a viability at 100 µM [1, 3] of 63.7% and an activity at 100 µM [1, 4] of 77.8%. The activity at 100 µM [1, 5] was 19.3%, the activity at 100 µM [1, 6] was 68.8% and the minimal effective concentration ([1]; 24 hr, read-out: huvec.cyto.24hr POD) was 1.1 µM. The minimal effective concentration ([1]; 24 hr, read-out: huvec.mito.24hr POD) was 0.97 µM, the minimal effective concentration ([1]; 24 hr, read-out: huvec.mitoint.24hr POD) was 41.4 µM and the minimal effective concentration ([1]; 24 hr, read-out: huvec.nma.24hr POD) was 0.04 µM. For the same compound, the viability at 0.01 µM [1, 7] was 89.2%, the viability at 0.1 µM [1, 7] was 100% and the viability at 1 µM [1, 7] was 94.6%. It also gave a viability at 10 µM [1, 7] of 71%, a viability at 100 µM [1, 7] of 83.9% and a minimal effective concentration ([1]; 24 hrs, read-out: huvec.tc.24hrs POD) of 1.1 µM. It also gave a viability at 0.01 µM [2, 8] of 93.4%, an activity at 0.01 µM [2, 9] of 93.6% and an activity at 0.01 µM [2, 10] of 123%. It also gave an activity at 0.01 µM [2, 11] of 101%, a viability at 0.01 µM [2, 12] of 93.4% and a viability at 0.1 µM [2, 8] of 99.8%. It also gave an activity at 0.1 µM [2, 9] of 100%, an activity at 0.1 µM [2, 10] of 111% and an activity at 0.1 µM [2, 11] of 97.6%. For the same compound, the viability at 0.1 µM [2, 12] was 99.8%, the viability at 1 µM [2, 8] was 98.9% and the activity at 1 µM [2, 9] was 99.4%. It also gave an activity at 1 µM [2, 10] of 118%, an activity at 1 µM [2, 11] of 97.4% and a viability at 1 µM [2, 12] of 98.9%. For the same compound, the viability at 10 µM [2, 8] was 102%, the activity at 10 µM [2, 9] was 102% and the activity at 10 µM [2, 10] was 129%. For the same compound, the activity at 10 µM [2, 11] was 98.3%, the viability at 10 µM [2, 12] was 102% and the viability at 100 µM [2, 8] was 45.2%. For the same compound, the activity at 100 µM [2, 9] was 58%, the activity at 100 µM [2, 10] was 98.4% and the activity at 100 µM [2, 11] was 90.1%. For the same compound, the viability at 100 µM [2, 12] was 79.2%, the minimal effective concentration ([2]; read-out: endo.cyto.24hr POD) was 45.8 µM and the minimal effective concentration ([2]; read-out: endo.mito.24hr POD) was 45.8 µM. The minimal effective concentration ([2]; read-out: endo.mitoint.24hr POD) was 100 µM, the minimal effective concentration ([2]; read-out: endo.nma.24hr POD) was 9.75 µM and the minimal effective concentration ([2]; read-out: endo.tc.24hrs POD) was 53.2 µM.
